# Assay results as given in ChEMBL document CHEMBL1122681, “(Acylaryloxy)acetic acid diuretics. 5. [(2-Alkyl- and 2,2-disubstituted-1,3-dioxo-5-indanyl)oxy]acetic acids” (J Med Chem, 1984).
# Columns and labels:
# Canis familiaris [1] = species: Canis familiaris; assay: volume of urine in dog; format: ADME, organism-based, Canis lupus familiaris; details: in vivo
# Rattus norvegicus [2] = assay: Compound was evaluated for diuretic activity administered orally in female rats measured as milliequivalents of Cl-x 100 / cage at 81 mg/kg; format: functional, Urine; details: route oral
# Rattus norvegicus [3] = assay: Compound was evaluated for diuretic activity administered orally in female rats measured as milliequivalents of K+x 100 / cage at 3 mg/kg; format: functional, Urine; details: route oral
# Canis familiaris [4] = assay: Compound was evaluated for diuretic activity, in female mongrel dogs by measuring volume of urine, after iv administration of 5 mg/kg (control/compound treatment results) Control = 1; format: ADME, organism-based, Canis lupus familiaris; design: dose 5 mg/kg, route intravenous; details: dog, in vivo
# Pan troglodytes [5] = assay: Compound was evaluated for diuretic activity in chimpanzee measured as increase in the number of microequivalents of K+ /min at 1 mg/kg; format: functional, Urine
# Canis familiaris [6] = assay: Compound was evaluated for diuretic activity, administered orally in female mongrel dogs (5 mg/kg) measured as milliequivalents of Cl-; format: functional, Canis lupus familiaris, Urine
# Pan troglodytes [7] = assay: Compound was evaluated for diuretic activity in chimpanzee measured as increase in volume of urine at 1 mg/kg; format: functional
# Rattus norvegicus [8] = assay: Compound was evaluated for diuretic activity administered orally in female rats measured as milliequivalents of Na+x 100 / cage at 3 mg/kg; format: functional, Urine; details: route oral
# Canis familiaris [9] = assay: Compound was evaluated for diuretic activity, in female mongrel dogs by measuring amount of Na+ in urine after iv administration of 5 mg/kg (control/compound treatment results) Control = 29; format: functional, Canis lupus familiaris
# Pan troglodytes [10] = assay: Compound was evaluated for diuretic activity in chimpanzee measured as clearance of […] and urate after peroral administration of 5 mg/kg; format: functional, Urine; details: route oral
# [11] = volume of urine at 9 mg/kg; format: ADME, organism-based; design: dose 9 mg/kg; details: in vivo
# Canis familiaris [12] = assay: Compound was evaluated for diuretic activity, in female mongrel dogs by measuring amount of Cl- in urine after iv administration of 5 mg/kg (control/compound treatment results) Control = 1; format: functional, Canis lupus familiaris
# Canis familiaris [13] = assay: Compound was evaluated for diuretic activity, administered orally in female mongrel dogs (5 mg/kg) measured as milliequivalents of Na; format: functional, Canis lupus familiaris, Urine
# Pan troglodytes [14] = assay: (§1) Compound was evaluated for diuretic activity in chimpanzee measured as increase in the number of microequivalents of Na+ /min at 1 mg/kg; format: functional, Urine
# Pan troglodytes [15] = assay: as §1; format: functional, Urine; remark: listed apart in the source
# Rattus norvegicus [16] = assay: Compound was evaluated for diuretic activity administered orally in female rats measured as milliequivalents of K+x 100 / cage at 27 mg/kg; format: functional, Urine; details: route oral
# Canis familiaris [17] = assay: Compound was evaluated for diuretic activity, in female mongrel dogs by measuring amount of K+ in urine after iv administration of 5 mg/kg (control/compound treatment results) Control = 18; format: functional, Canis lupus familiaris
# Rattus norvegicus [18] = assay: Compound was evaluated for diuretic activity administered orally in female rats measured as milliequivalents of K+x 100 / cage at 9 mg/kg; format: functional, Urine; details: route oral
# Rattus norvegicus [19] = assay: Compound was evaluated for diuretic activity administered orally in female rats measured as milliequivalents of Cl-x 100 / cage at 3 mg/kg; format: functional, Urine; details: route oral
# Canis familiaris [20] = assay: Compound was evaluated for diuretic activity, administered orally in female mongrel dogs (5 mg/kg) measured as milliequivalents of K; format: functional, Canis lupus familiaris, Urine
# Pan troglodytes [21] = assay: Compound was evaluated for diuretic activity in chimpanzee measured as clearance of […] and urate after intra venous administration of 1 mg/kg.; format: functional, Urine
# Rattus norvegicus [22] = assay: Compound was evaluated for diuretic activity administered orally in female rats measured as milliequivalents of K+x 100 / cage at 81 mg/kg; format: functional, Urine; details: route oral
# Pan troglodytes [23] = assay: (§2) Compound was evaluated for diuretic activity in chimpanzee measured as increase in the number of microequivalents of Cl- electrolyte/min at 1 mg/kg; format: functional, Urine
# Rattus norvegicus [24] = assay: Compound was evaluated for diuretic activity administered orally in female rats measured as milliequivalents of Cl-x 100 / cage at 9 mg/kg; format: functional, Urine; details: route oral
# Rattus norvegicus [25] = assay: Compound was evaluated for diuretic activity administered orally in female rats measured as milliequivalents of Na+x 100 / cage at 27 mg/kg; format: functional, Urine; details: route oral
# Rattus norvegicus [26] = assay: Compound was evaluated for diuretic activity administered orally in female rats measured as milliequivalents of Cl-+x 100 / cage at 27 mg/kg; format: functional, Urine; details: route oral
# [27] = volume of urine at 81 mg/kg; format: ADME, organism-based; design: dose 81 mg/kg; details: in vivo
# Rattus norvegicus [28] = assay: Compound was evaluated for diuretic activity administered orally in female rats measured as milliequivalents of Na+x 100 / cage at 81 mg/kg; format: functional, Urine; details: route oral
# [29] = volume of urine at 27 mg/kg; format: ADME, organism-based; design: dose 27 mg/kg; details: in vivo
# Pan troglodytes [30] = assay: as §2; format: functional, Urine; remark: listed apart in the source
# [31] = volume of urine at 3 mg/kg; format: ADME, organism-based; design: dose 3 mg/kg; details: in vivo
# Rattus norvegicus [32] = assay: Compound was evaluated for diuretic activity administered orally in female rats measured as milliequivalents of Na+x 100 / cage at 9 mg/kg; format: functional, Urine; details: route oral
compound,measurement,setting,value
NS(=O)(=O)c1cc(C(=O)O)c(NCc2ccco2)cc1Cl [FUROSEMIDE],Urine volume,Canis familiaris [1],36 mL
same,Activity,Rattus norvegicus [2],328
same,Activity,Rattus norvegicus [3],31
same,Urine volume,Canis familiaris [4],3 mL/min
same,Increase,Pan troglodytes [5],154
same,P Increase,Pan troglodytes [5],100
same,Activity,Canis familiaris [6],8
same,Increase,Pan troglodytes [7],0.8 mL/min
same,Increase in volume,Pan troglodytes [7],7.3 mL/min
same,Activity,Rattus norvegicus [8],57
same,Activity,Canis familiaris [9],960 u equiv min-1
same,Delta C urate / delta C insulin,Pan troglodytes [10],-0.083
same,Urine volume,[11],28 mL
same,Activity,Canis familiaris [12],1081 u equiv min-1
same,Activity,Canis familiaris [13],23
same,Increase,Pan troglodytes [14],749
same,Increase,Pan troglodytes [15],738
same,Activity,Rattus norvegicus [16],60
same,Activity,Canis familiaris [17],141 u equiv min-1
same,Activity,Rattus norvegicus [18],39
same,Activity,Rattus norvegicus [19],71
same,Activity,Canis familiaris [20],31
same,Delta C urate / delta C insulin,Pan troglodytes [21],-0.005
same,Activity,Rattus norvegicus [22],97
same,Increase,Pan troglodytes [23],928
same,Activity,Rattus norvegicus [24],96
same,Activity,Rattus norvegicus [25],150
same,Activity,Rattus norvegicus [26],228
same,Urine volume,[27],46 mL
same,Activity,Rattus norvegicus [28],253
same,Urine volume,[29],36 mL
same,Increase,Pan troglodytes [30],961
same,Urine volume,[31],26 mL
same,Activity,Rattus norvegicus [32],69
